Measured values reported in ChEMBL document CHEMBL3769312, “2-Sulfonamidopyridine C-region analogs of 2-(3-fluoro-4-methylsulfonamidophenyl)propanamides as potent TRPV1 antagonists” (Bioorg Med Chem, 2016).

Columns and labels:
[1] = target: T1, Transient receptor potential cation channel subfamily V member 1 (Homo sapiens, UniProt Q8NER1); experiment: Displacement of [3H]RTX from human TRPV1 expressed in CHO cells after 60 mins by scintillation counting analysis; type: cell-based
[2] = target: T1, Transient receptor potential cation channel subfamily V member 1; experiment: Agonist activity at human TRPV1 expressed in CHO cells assessed as (45)Ca2+ uptake after 5 mins by liquid scintillation counting analysis; type: cell-based
[3] = target: T1, Transient receptor potential cation channel subfamily V member 1; experiment: Antagonist activity at human TRPV1 expressed in CHO cells assessed as inhibition of capsaicin-induced (45)Ca2+ uptake after 5 mins by liquid scintillation counting analysis; type: cell-based
[4] = tested on: Mus musculus; experiment: Analgesic activity in ip dosed formalin-induced mouse pain model after 20 to 30 mins; type: functional

T1 sequence (Q8NER1 whole entry): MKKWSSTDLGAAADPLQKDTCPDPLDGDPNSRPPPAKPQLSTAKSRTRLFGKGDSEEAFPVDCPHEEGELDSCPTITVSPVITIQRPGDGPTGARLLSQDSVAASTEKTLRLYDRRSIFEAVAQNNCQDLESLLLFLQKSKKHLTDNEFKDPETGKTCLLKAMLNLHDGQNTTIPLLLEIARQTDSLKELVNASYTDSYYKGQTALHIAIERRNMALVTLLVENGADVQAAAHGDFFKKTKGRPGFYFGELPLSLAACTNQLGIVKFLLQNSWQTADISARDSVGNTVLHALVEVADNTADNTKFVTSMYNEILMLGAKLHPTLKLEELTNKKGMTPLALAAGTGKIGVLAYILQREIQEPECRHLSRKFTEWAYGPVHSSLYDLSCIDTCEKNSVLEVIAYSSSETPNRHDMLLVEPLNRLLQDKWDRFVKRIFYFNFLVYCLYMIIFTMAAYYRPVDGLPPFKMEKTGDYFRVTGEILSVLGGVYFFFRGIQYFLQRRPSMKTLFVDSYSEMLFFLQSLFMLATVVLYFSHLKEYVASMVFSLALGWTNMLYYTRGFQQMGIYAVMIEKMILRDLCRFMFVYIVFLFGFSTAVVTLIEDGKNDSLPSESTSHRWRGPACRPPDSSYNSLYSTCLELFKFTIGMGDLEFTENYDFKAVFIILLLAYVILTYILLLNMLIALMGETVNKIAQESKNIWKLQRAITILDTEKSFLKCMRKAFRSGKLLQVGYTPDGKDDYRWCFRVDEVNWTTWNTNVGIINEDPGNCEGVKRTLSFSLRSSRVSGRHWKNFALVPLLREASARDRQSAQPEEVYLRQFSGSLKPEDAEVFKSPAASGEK

Compound | Ki ([1]; read-out: Ki) | EC50 [2] | Ki ([3]; read-out: Ki) | Activity [4] | ED50 [4] | Ki ([1]; cho) | Ki ([3]; cho)
CC(C(=O)NCc1ccc(C(F)(F)F)nc1N(C)S(=O)(=O)c1ccccc1)c1ccc(NS(C)(=O)=O)c(F)c1 (configuration not stated) | 698 nM | Not Active | 100 nM | – | – | – | –
C[C@H](C(=O)NCc1ccc(C(F)(F)F)nc1N(Cc1ccccc1)S(=O)(=O)c1ccccc1)c1ccc(NS(C)(=O)=O)c(F)c1 | 0.54 nM | Not Active | 1.81 nM | – | – | – | –
CC(C(=O)NCc1ccc(C(F)(F)F)nc1N(Cc1ccc(F)cc1)S(=O)(=O)c1ccc(F)cc1)c1ccc(NS(C)(=O)=O)c(F)c1 (configuration not stated) | 0.71 nM | Not Active | 2.99 nM | – | – | – | –
CC1CCN(c2nc(C(F)(F)F)ccc2CNC(=O)[C@@H](C)c2ccc(NS(C)(=O)=O)c(F)c2)CC1 | 2.95 nM | Not Active | 1.26 nM | – | – | – | –
Cc1ccc(CN(c2nc(C(F)(F)F)ccc2CNC(=O)C(C)c2ccc(NS(C)(=O)=O)c(F)c2)S(=O)(=O)c2ccccc2)cc1 (configuration not stated) | 1.85 nM | Not Active | 5.54 nM | – | – | – | –
CC(C(=O)NCc1ccc(C(F)(F)F)nc1N(Cc1ccccc1)S(=O)(=O)c1ccc(F)cc1)c1ccc(NS(C)(=O)=O)c(F)c1 (configuration not stated) | 1.56 nM | Not Active | 3.87 nM | – | – | – | –
COc1ccc(CN(c2nc(C(F)(F)F)ccc2CNC(=O)C(C)c2ccc(NS(C)(=O)=O)c(F)c2)S(=O)(=O)c2ccccc2)cc1 (configuration not stated) | 7.5 nM | Not Active | 2.14 nM | – | – | – | –
CC(C(=O)NCc1ccc(C(F)(F)F)nc1N(c1ccccc1)S(=O)(=O)c1ccccc1)c1ccc(NS(C)(=O)=O)c(F)c1 (configuration not stated) | 18.3 nM | Not Active | 6 nM | – | – | – | –
CCCS(=O)(=O)N(Cc1ccccc1)c1nc(C(F)(F)F)ccc1CNC(=O)C(C)c1ccc(NS(C)(=O)=O)c(F)c1 (configuration not stated) | – | Not Active | – | – | – | – | –
CC(C(=O)NCc1ccc(C(F)(F)F)nc1N(Cc1ccccc1)S(=O)(=O)C(C)C)c1ccc(NS(C)(=O)=O)c(F)c1 (configuration not stated) | 18.1 nM | Not Active | 6.19 nM | – | – | – | –
CC(C(=O)NCc1ccc(C(F)(F)F)nc1N(Cc1ccc(F)cc1)S(=O)(=O)c1ccccc1)c1ccc(NS(C)(=O)=O)c(F)c1 (configuration not stated) | 2.32 nM | Not Active | 7.37 nM | – | – | – | –
CC(C(=O)NCc1ccc(C(F)(F)F)nc1N(CC1CCCCC1)S(=O)(=O)c1ccccc1)c1ccc(NS(C)(=O)=O)c(F)c1 (configuration not stated) | 2.3 nM | Not Active | 10 nM | – | – | – | –
Cc1ccc(CN(c2nc(C(F)(F)F)ccc2CNC(=O)C(C)c2ccc(NS(C)(=O)=O)c(F)c2)S(=O)(=O)c2ccc(F)cc2)cc1 (configuration not stated) | 3.28 nM | Not Active | 7.08 nM | – | – | – | –
CC(C(=O)NCc1ccc(C(F)(F)F)nc1N(Cc1ccccc1)S(=O)(=O)c1ccc(Cl)cc1)c1ccc(NS(C)(=O)=O)c(F)c1 (configuration not stated) | 0.76 nM | Not Active | 8.5 nM | – | – | – | –
CCS(=O)(=O)N(Cc1ccccc1)c1nc(C(F)(F)F)ccc1CNC(=O)C(C)c1ccc(NS(C)(=O)=O)c(F)c1 (configuration not stated) | 38 nM | Not Active | 11.9 nM | – | – | – | –
CC(C(=O)NCc1ccc(C(F)(F)F)nc1N(c1ccc(F)cc1)S(=O)(=O)c1ccccc1)c1ccc(NS(C)(=O)=O)c(F)c1 (configuration not stated) | 7.3 nM | Not Active | 11.8 nM | – | – | – | –
COc1ccc(CN(c2nc(C(F)(F)F)ccc2CNC(=O)C(C)c2ccc(NS(C)(=O)=O)c(F)c2)S(=O)(=O)c2ccc(F)cc2)cc1 (configuration not stated) | 1.65 nM | Not Active | 7.9 nM | – | – | – | –
CC(C(=O)NCc1ccc(C(F)(F)F)nc1N(C(C)C)S(=O)(=O)c1ccccc1)c1ccc(NS(C)(=O)=O)c(F)c1 (configuration not stated) | 410 nM | Not Active | 27.6 nM | – | – | – | –
CC(C(=O)NCc1ccc(C(F)(F)F)nc1N(Cc1ccccc1)S(=O)(=O)c1ccccc1)c1ccc(NS(C)(=O)=O)c(F)c1 (configuration not stated) | 1.99 nM | Not Active | 5.9 nM | Dose-dependent effect | 15.6 mg/kg | – | –
CC(C(=O)NCc1ccc(C(F)(F)F)nc1N(Cc1ccc(Cl)cc1)S(=O)(=O)c1ccc(F)cc1)c1ccc(NS(C)(=O)=O)c(F)c1 (configuration not stated) | 0.9 nM | Not Active | 6 nM | – | – | – | –
CC1CCN(c2nc(C(F)(F)F)ccc2CNC(=O)C(C)c2ccc(NS(C)(=O)=O)c(F)c2)CC1 (configuration not stated) | 7.9 nM | Not Active | 2.22 nM | – | – | – | –
CC(C(=O)NCc1ccc(C(F)(F)F)nc1N(Cc1ccc(Cl)cc1)S(=O)(=O)c1ccccc1)c1ccc(NS(C)(=O)=O)c(F)c1 (configuration not stated) | 1.29 nM | Not Active | 5.77 nM | – | – | – | –
CC(C(=O)NCc1ccc(C(F)(F)F)nc1N(Cc1ccccc1)S(C)(=O)=O)c1ccc(NS(C)(=O)=O)c(F)c1 (configuration not stated) | 101 nM | Not Active | 25 nM | – | – | – | –
CC(C(=O)NCc1ccc(C(F)(F)F)nc1NS(=O)(=O)c1ccccc1)c1ccc(NS(C)(=O)=O)c(F)c1 (configuration not stated) | – | Not Active | – | – | – | Active | Active
